The supplement of paper PMC10307832

Key:
Assay in all cases: relative viability (nuclei count vs DMSO), 5 days (fraction); higher = more cells survive
[1] = compound: CC(C)CCN1c2nc(Nc3cc(F)c(O)c(F)c3)ncc2N(C)C(=O)C1C [BI-D1870] + O=C(CCCCCCC(=O)Nc1ccccc1)NO [Vorinostat] (partner 1 µM)
Summary of the method: (§1)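 Relative viability is defined as nuclei in treated wells over nuclei in vehicle wells. Duplicate plates were run and medians reported. Lung cancer cell lines in 1536-well plates were dosed by pin tool one day after seeding, with one drug or with a fixed anchor-drug dose plus five library-drug doses (not always all listed) in √10 steps, and nuclei were counted after 5 days.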

[2] = compound: O=c1ncccn1[C@@H]1O[C@H](CO)[C@@H](O)[C@H]1O [Zebularine] + NC(=O)Nc1cc(-c2cccc(F)c2)sc1C(=O)N[C@H]1CCCNC1 [AZD7762] (partner 0.2 µM)
Summary of the method: as §1

[3] = compound: CC(C)CCN1c2nc(Nc3cc(F)c(O)c(F)c3)ncc2N(C)C(=O)C1C [BI-D1870] + CC(C)C[C@H](NC(=O)[C@H](Cc1ccccc1)NC(=O)c1cnccn1)B(O)O [Bortezomib] (partner 0.002 µM)
Summary of the method: as §1

[4] = compound: O=c1ncccn1[C@@H]1O[C@H](CO)[C@@H](O)[C@H]1O [Zebularine] + N=C(N)NC(=N)NCCc1ccccc1 [Phenformin] (partner 250 µM)
Summary of the method: as §1

| Cell Line | relative viability ([1]; first compound 0.04 µM) | relative viability ([1]; first compound 0.1265 µM) | relative viability ([1]; first compound 0.4 µM) | relative viability ([1]; first compound 1.265 µM) | relative viability ([1]; first compound 4 µM) | relative viability ([2]; first compound 1 µM) | relative viability ([2]; first compound 3.162 µM) | relative viability ([2]; first compound 10 µM) | relative viability ([2]; first compound 31.62 µM) | relative viability ([2]; first compound 100 µM) | relative viability ([3]; first compound 0.04 µM) | relative viability ([3]; first compound 0.1265 µM) | relative viability ([3]; first compound 0.4 µM) | relative viability ([3]; first compound 1.265 µM) | relative viability ([3]; first compound 4 µM) | relative viability ([4]; first compound 1 µM) | relative viability ([4]; first compound 3.162 µM) | relative viability ([4]; first compound 10 µM) | relative viability ([4]; first compound 31.62 µM) | relative viability ([4]; first compound 100 µM) |
| --- | --- | --- | --- | --- | --- | --- | --- | --- | --- | --- | --- | --- | --- | --- | --- | --- | --- | --- | --- | --- |
| HCC-44 | 1.14 | 1.07 | 1.16 | 1.14 | 1.14 | 1.11 | 1.03 | 1.15 | 1.14 | 1.01 | 1.08 | 0.965 | 0.909 | 0.941 | 0.99 | 0.255 | 0.212 | 0.145 | 0.144 | 0.157 |
| HCC-827 | 0.771 | 0.846 | 0.818 | 0.988 | 0.765 | 0.221 | 0.206 | 0.197 | 0.197 | 0.179 | 1.14 | 1.1 | 0.985 | 1.03 | 1.12 | 0.486 | 0.396 | 0.45 | 0.379 | 0.278 |
| NCI-H1623 | – | – | – | – | – | – | – | – | – | – | – | – | – | – | – | 0.624 | 0.531 | 0.479 | 0.535 | 0.437 |
| NCI-H2347 | 0.524 | 0.677 | 0.597 | 0.776 | 0.545 | 0.858 | 0.788 | 0.609 | 0.462 | 0.305 | 1.04 | 0.856 | 1.14 | 1.24 | 0.915 | 0.583 | 0.38 | 0.297 | 0.233 | 0.293 |
| PC-14 | 0.825 | 0.625 | 0.58 | 0.699 | 0.569 | 0.471 | 0.324 | 0.141 | 0.144 | 0.14 | 0.95 | 0.909 | 0.809 | 0.963 | 0.559 | 0.805 | 0.28 | 0.167 | 0.124 | 0.0723 |
| NCI-H1651 | 0.557 | 0.536 | 0.472 | 0.623 | 0.451 | 0.506 | 0.486 | 0.445 | 0.466 | 0.294 | 1.06 | 0.943 | 0.885 | 1.01 | 0.903 | 0.347 | 0.401 | 0.273 | 0.369 | 0.256 |
| HARA | 0.542 | 0.405 | 0.641 | 0.614 | 0.495 | 0.417 | 0.31 | 0.303 | 0.371 | 0.336 | 1.03 | 1.03 | 1.22 | 1.18 | 0.943 | 0.506 | – | – | 0.436 | 0.272 |
| NCI-H1650 | 0.613 | 0.425 | 0.646 | 0.595 | 0.577 | – | – | – | – | – | 0.214 | 0.223 | 0.209 | 0.184 | 0.186 | 0.493 | 0.476 | 0.307 | 0.492 | 0.353 |
| NCI-H1395 | 0.774 | 0.641 | 0.801 | 0.705 | 0.597 | 0.402 | 0.372 | 0.397 | 0.37 | 0.435 | – | – | – | – | – | 0.455 | 0.454 | 0.398 | 0.361 | 0.372 |
| LU99A | 0.584 | 0.422 | 0.412 | 0.428 | 0.345 | 0.348 | 0.28 | 0.267 | 0.24 | 0.115 | 1.34 | 1.03 | 1.12 | 1.06 | 1.02 | 0.856 | 0.831 | 0.551 | 0.558 | 0.208 |
| NCI-H1355 | 0.74 | 0.613 | 0.657 | 0.731 | 0.608 | 0.722 | 0.8 | 0.543 | 0.588 | 0.338 | 1.24 | 1.22 | 1.21 | 1.28 | 1.02 | 0.507 | 0.45 | 0.425 | 0.403 | 0.294 |
| HCC-78 | 0.438 | 0.408 | 0.392 | 0.497 | 0.381 | 0.716 | 0.743 | – | 0.648 | 0.468 | 0.545 | 0.402 | 0.492 | 0.56 | 0.42 | 0.678 | 0.728 | 0.496 | 0.74 | 0.387 |
| NCI-H1563 | – | – | – | – | – | – | – | – | – | – | 0.908 | 0.81 | 0.802 | 0.852 | 0.784 | 0.684 | 0.674 | 0.647 | 0.702 | 0.661 |
| HCC-15 | 0.81 | 0.782 | 0.786 | 0.987 | 0.678 | 1.24 | 1.41 | 0.883 | 1.17 | 0.984 | 1.03 | 1.01 | 0.922 | 1.04 | 0.863 | 0.532 | 0.496 | 0.247 | 0.417 | 0.308 |
| EKVX | 0.779 | 0.707 | 0.64 | 0.814 | 0.703 | 0.846 | 0.816 | – | 0.593 | 0.772 | 1.14 | 1.1 | 0.938 | 1.15 | 1.05 | 0.238 | 0.248 | 0.218 | 0.238 | 0.251 |
| NCI-H2087 | 0.634 | 0.595 | 0.96 | 0.92 | 0.849 | 1.55 | 1.38 | 0.735 | 0.794 | 0.465 | 0.829 | 0.845 | 0.927 | 1.13 | 0.839 | 0.524 | 0.448 | 0.272 | 0.385 | 0.352 |
| LK-2 | 0.351 | 0.391 | 0.468 | 0.277 | 0.279 | 0.492 | 0.382 | 0.49 | 0.23 | 0.16 | – | – | – | – | – | 0.759 | 0.355 | 0.289 | 0.372 | 0.259 |
| NCI-H1437 | 0.809 | 0.747 | 0.749 | 0.76 | 0.492 | 1.16 | 1.21 | 0.947 | 1.16 | 0.914 | 0.539 | 0.474 | 0.478 | 0.466 | 0.423 | 0.333 | 0.311 | 0.229 | 0.328 | 0.376 |
